This is an account of results in PubChem BioAssay (NCI).

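48-hour exposure; five concentrations; linearly interpolated endpoints. The concentration for 50% growth inhibition is given as GI50. TGI is the concentration that stops growth completely.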 Some results are limits rather than exact numbers.

Some test systems named below: TK-10 renal; DU-145 prostate; NCI-H23 lung; MDA-MB-231 breast; SW-620 colon; COLO 205 colon; SK-MEL-28 melanoma; CCRF-CEM leukemia; SF-539 CNS; MALME-3M melanoma.
Holding throughout (experiment): NCI anticancer screen, dose series, 48 h

As for `O=C(Nc1ccc(I)cc1F)c1cc(F)ccc1O`, the GI50 in the test on TK-10 renal was 1.59 µM; in the test with DU-145 prostate it was 0.655 µM; in the test with NCI-H23 lung, 0.379 µM; with MDA-MB-231 breast it was 0.513 µM; in the test with SW-620 colon, 0.777 µM; in the test with COLO 205 colon it was 3.88 µM. Further, the GI50 in the test on SK-MEL-28 melanoma is 0.353 µM; in the test on CCRF-CEM leukemia, 1.85 µM; with SF-539 CNS it was 0.444 µM; with MALME-3M melanoma it was 0.315 µM. In addition, the TGI is 24.2 µM in the test on TK-10 renal; above 100 µM in the test on DU-145 prostate; 4.04 µM with NCI-H23 lung; 4.69 µM with MDA-MB-231 breast; above 34.7 µM with SW-620 colon; 15.6 µM in the test on COLO 205 colon. Further, the TGI in the test on SK-MEL-28 melanoma stood at 1.91 µM; in the test with CCRF-CEM leukemia, 12.4 µM; in the test on SF-539 CNS, 7.07 µM; with MALME-3M melanoma, 1.53 µM.
In the case of `CCn1c(-c2nonc2N)nc2c(C#CC(C)(C)O)ncc(OCC3CCNCC3)c21`, the GI50 was 8.28 µM with TK-10 renal; 8.15 µM in the test on DU-145 prostate; above 19.2 µM in the test with NCI-H23 lung; above 25 µM in the test on MDA-MB-231 breast; 10.1 µM in the test with SW-620 colon; 4.84 µM with COLO 205 colon. The GI50 with SK-MEL-28 melanoma was 10 µM; in the test with CCRF-CEM leukemia, 4.5 µM; in the test on SF-539 CNS, 3.36 µM; with MALME-3M melanoma it was above 25 µM. The TGI is above 25 µM with TK-10 renal; above 25 µM in the test with DU-145 prostate; above 25 µM in the test with NCI-H23 lung; above 25 µM in the test with MDA-MB-231 breast; above 25 µM in the test on SW-620 colon; 15.2 µM in the test with COLO 205 colon. The TGI in the test on SK-MEL-28 melanoma was above 25 µM; with CCRF-CEM leukemia, above 25 µM; in the test with SF-539 CNS it was above 20.7 µM; in the test on MALME-3M melanoma, above 25 µM.
Regarding `COC(=O)C1=C(C)NC(C)=C(C(=O)OC)C1c1ccccc1[N+](=O)[O-]`, the GI50 in the test on TK-10 renal is above 100 µM; in the test with DU-145 prostate, above 100 µM; in the test on NCI-H23 lung it was above 100 µM; with MDA-MB-231 breast, 70.7 µM; with SW-620 colon, above 100 µM; with COLO 205 colon it was 89 µM. Further, the GI50 in the test on SK-MEL-28 melanoma, in the test with CCRF-CEM leukemia, with SF-539 CNS and in the test with MALME-3M melanoma was above 100 µM in each case. For the same compound, the TGI in the test on TK-10 renal, with DU-145 prostate, with NCI-H23 lung, in the test on MDA-MB-231 breast, in the test with SW-620 colon and in the test on COLO 205 colon was above 100 µM in each case. The TGI in the test on SK-MEL-28 melanoma, with CCRF-CEM leukemia, with SF-539 CNS and with MALME-3M melanoma was above 100 µM each time.
As for `COC(=O)CCCCCCCCC(=O)c1c(C)[nH]c(/C=C2\N=C(c3ccc[nH]3)C=C2OC)c1C`, the GI50 in the test with TK-10 renal is above 100 µM; with DU-145 prostate it was 32.1 µM; in the test with NCI-H23 lung it was above 100 µM; in the test with MDA-MB-231 breast it was 7.83 µM; in the test with SW-620 colon, above 62 µM; in the test with COLO 205 colon, above 100 µM. In addition, the GI50 in the test on SK-MEL-28 melanoma is 14.9 µM; with CCRF-CEM leukemia, 2.3 µM; in the test with SF-539 CNS it was above 55.1 µM; in the test with MALME-3M melanoma, above 22.9 µM. The TGI in the test on TK-10 renal, in the test on DU-145 prostate, in the test on NCI-H23 lung, with MDA-MB-231 breast, with SW-620 colon and in the test on COLO 205 colon was above 100 µM in each case. In addition, the TGI in the test with SK-MEL-28 melanoma, in the test with CCRF-CEM leukemia, in the test on SF-539 CNS and in the test with MALME-3M melanoma was above 100 µM in each case.
On to `CCCCOc1nc2ccccc2cc1C1CNC(=O)c2ccccc2N1` (stereo not given), for which the GI50 in the test on TK-10 renal is 5.92 µM; in the test with DU-145 prostate, 3.19 µM; in the test with NCI-H23 lung, 5.19 µM; in the test on MDA-MB-231 breast it was 4.78 µM; in the test with SW-620 colon it was 2.59 µM; with COLO 205 colon, 2.39 µM. Moreover, the GI50 is 4.82 µM with SK-MEL-28 melanoma, 2.93 µM in the test on CCRF-CEM leukemia, 2.3 µM in the test on SF-539 CNS and 5.82 µM in the test on MALME-3M melanoma. Further, the TGI in the test with TK-10 renal came to 22.1 µM; in the test on DU-145 prostate, 12 µM; in the test with NCI-H23 lung, 35.1 µM; in the test on MDA-MB-231 breast, 26 µM; in the test on SW-620 colon it was 21.5 µM; with COLO 205 colon it was 5.63 µM. In addition, the TGI in the test on SK-MEL-28 melanoma amounted to 23.6 µM; in the test on CCRF-CEM leukemia it was 18.8 µM; with SF-539 CNS, 6.86 µM; in the test on MALME-3M melanoma, 38.4 µM.
On to `CCOC(=O)Nc1ccc2nc(Sc3ccc(Cl)cc3)sc2c1`, for which the GI50 is 9.1 µM with TK-10 renal; 4.33 µM in the test with DU-145 prostate; 10.2 µM with NCI-H23 lung; 4.47 µM in the test with MDA-MB-231 breast; 0.488 µM in the test with SW-620 colon; 1.45 µM in the test with COLO 205 colon. The GI50 is 13.5 µM with SK-MEL-28 melanoma, 4 µM with CCRF-CEM leukemia, 2.92 µM in the test on SF-539 CNS and 5.7 µM in the test on MALME-3M melanoma. The TGI is 58.4 µM in the test on TK-10 renal; above 48.5 µM in the test on DU-145 prostate; above 100 µM in the test with NCI-H23 lung; 34 µM in the test with MDA-MB-231 breast; above 100 µM in the test with SW-620 colon; 19 µM in the test on COLO 205 colon. Further, the TGI with SK-MEL-28 melanoma is above 100 µM; with CCRF-CEM leukemia, above 100 µM; in the test on SF-539 CNS, 22.1 µM; in the test with MALME-3M melanoma it was 37.1 µM.
Regarding `CCOC(=O)CCC(NC(=O)c1ccc(Nc2nc3cc(N)cc(N)c3nc2-c2ccccc2)cc1)C(=O)OCC` (stereo not given), the GI50 was above 57.4 µM with TK-10 renal; 65.8 µM in the test on DU-145 prostate; 30.8 µM with NCI-H23 lung; 16.5 µM with MDA-MB-231 breast; 45.6 µM in the test on SW-620 colon; above 29.7 µM in the test on COLO 205 colon. Besides, the GI50 was 5.76 µM in the test with SK-MEL-28 melanoma, 5.15 µM with CCRF-CEM leukemia, 27.3 µM in the test with SF-539 CNS and 8.1 µM in the test on MALME-3M melanoma. Also, the TGI is above 87.3 µM in the test with TK-10 renal; above 100 µM with DU-145 prostate; above 74.5 µM in the test on NCI-H23 lung; above 53.2 µM with MDA-MB-231 breast; above 100 µM in the test with SW-620 colon; above 100 µM in the test with COLO 205 colon. Besides, the TGI with SK-MEL-28 melanoma is 13.3 µM; with CCRF-CEM leukemia, above 100 µM; in the test on SF-539 CNS, above 100 µM; with MALME-3M melanoma, 15.8 µM.
